From US6528675B1, “Cyanohydrin ethers and esters as high-sensitivity enzyme substrates” (The Regents of the University of California, priority 2001, dated 2003) come the findings set out here.

Structures are written as SMILES.

The experiment is described as follows: Rate of conversion of cyanohydrin to aldehyde as a function of pH. Type of experiment: physicochemical. The note with it: pH 8.0 or greater, tris-maleate 0.1 M, 25° C. Here is the method:
This example illustrates the rate of conversion of a cyanohydrin formed in the practice of this invention to its corresponding aldehyde. The cyanohydrin used in this example is hydroxy-(6-methoxynaphthalen-2-yl) acetonitrile, which is the cyanohydrin formed by the action of an esterase on the substrate of Example 1.
The rate of cyanohydrin-to-aldehyde conversion was determined as a function of pH at constant ionic strength (0.1 M) and temperature (25° C.), using a series of tris-maleate buffers with different pH values ranging from 6.0 to 9.0 at intervals of 0.5. Conversion was initiated by the addition of 3 μL of 10 mM of cyanohydrin, and the formation of 6-methoxy-2-naphthaldehyde, measured in pmol cyanohydrin converted per second per mL, was detected by fluorescence excitation at 330 nm and emission at 460 nm over a time period of 20 minutes. […] The rate of aldehyde conversion increases rapidly at pH 8.0 or greater with maximum fluorescence achieved in less than 20 seconds.

Turning to `COc1ccc2cc(C(O)C#N)ccc2c1` (stereo not shown) [cyanohydrin, hydroxy-(6-methoxynaphthalen-2-yl) acetonitrile], the “time to maximum fluorescence (cyanohydrin-to-aldehyde conversion)” value is “less than 20 seconds”.
